We go through two compounds from patent US20210401827A1 (priority 2018, published 2021).

For data set [1] the following is noted: in vivo; cited from earlier work.
The conditions of data set [2]: human, in vivo.
The conditions of data set [3]: human, in vivo. This is another data set of the same source.

Where two headings read alike, the source gives them in different places.

For `C=C1CC[C@@]2(O)[C@H]3Cc4ccc(O)c5c4[C@@]2(CCN3CC2CC2)[C@H]1O5` [Nalmefene, 17-cyclopropylmethyl-4,5α-epoxy-6-methylenemorphinan-3,14-diol], in data set [1], the “adverse events with an incidence less than 1%” value was “bradycardia, arrhythmia, diarrhea, dry mouth, somnolence, depression, agitation, nervousness, tremor, confusion, withdrawal syndrome, myoclonus, pharyngitis, pruritus, and urinary retention”; the “common adverse reactions with an incidence greater than 1%” value was “nausea, vomiting, tachycardia, hypertension, postoperative pain, fever, dizziness, headache, chills, hypotension, and vasodilation”. The compound also yielded a Lambda z in data set [2] of 0.094 h⁻¹. In data set [2] (im, 1.5 mg), this compound returned an AUCextrap of 22.6% and a Cmax/D of 1.12 ng/mL/mg.

In turn, `O=C1CC[C@@]2(O)[C@H]3Cc4ccc(O)c5c4[C@@]2(CCN3CC2CC2)[C@H]1O5` [Naltrexone, 17-(cyclopropylmethyl)-4,5α-epoxy-3,14-dihydroxymorphinan-6-one] had a λz in data set [3] of 0.361 h⁻¹. In data set [3] (im, 2 mg), this compound yielded an AUCextrap of 1.01% and a Cmax/Dose of 2.27 ng/mL/mg.
